Laboratory results published in patent US9581587B2, “Sperm staining and sorting methods” (INGURAN, LLC, priority 2011, dated 2017).
Each block holds one compound with its values, some of them ahead of it.

Key:
[1] = test system: membrane compromised sperm; assay: Dead gate intensity, yellow 5 and phenol red at higher concentrations (Example 6); format: cell-based, Jersey bull; settings: Hoechst 12 μL/2 mL
sperm [2] = assay: Post thaw motility and percent intact acrosomes of sex sorted, frozen-thawed sperm (Example 1); format: cell-based, bovine; settings: average over all bulls; for Motility Average 3 Hour: post thaw 3 hours, treatments as E1
Experimental: Sperm was collected from 10 different bulls on a routine collection schedule using an artificial vagina over the course of 4 days. The 10 bulls included both Jersey bulls and Holstein bulls. All ejaculates contained greater than 60% progressive motility and greater than 70% morphological normal sperm. Antibiotics were added within 15 minutes of collection.
Red food dye treatment 40%—A reduced volume of red food dye No. 40 control was established. Sperm was diluted to 160×10^6 sperm per ml in a modified TALP buffer, as described in Table 1, at a pH of 7.4. Samples collected from Jersey bulls were incubated with 16 μl of Hoechst 33342 per 2 ml of sample for between 45 and 60 minutes at 34° C., while samples collected from Holstein bulls were incubated 17 μl of Hoechst 33342 per 2 ml of sample for between 45 and 60 minutes at 34° C. After incubation an equal volume of a second modified TALP was added reducing the concentration to 80×10^6. The second modified TALP includes the components described in Table 1 with the addition of 4% egg yolk, 40 μM red food dye No. 40 (20 g/L) and the pH dropped to 5.5 with HCl.
Yellow food dye was included in a second group at an equal concentration. Sperm was diluted to 160×10^6 sperm per ml in a modified TALP buffer, as described in Table 1, at a pH of 7.4. Samples collected from Jersey bulls were incubated with 14 μl of Hoechst 33342 per 2 ml of sample for between 45 and 60 minutes at 34° C., while sample collected from Holstein bulls were incubated 15 μl of Hoechst 33342 per 2 ml of sample for between 45 and 60 minutes at 34° C. After incubation an equal volume of a second modified TALP was added reducing the concentration to 80×10^6. The second modified TALP includes the components described in Table 1 with the addition 4% egg yolk, […] yellow food dye No. 6 and a pH dropped to 5.5 with HCl. […]
Straws were thawed the following day for motility measurements at 0 hour and 3 hours. Percent intact acrosomes were measured as well, and the overall averages over all bulls on each day are illustrated in Table 3. […]

sperm [3] = assay: Post thaw motility Elk (Example 3); format: cell-based; settings: post thaw 0 HR; RED TALP with 16 μL Hoechst 33342, Y6 with 14 μL
Experimental: (§1) Each of deer and elk were collected in the Tris-egg yolk catch fluid described as a catch media in Example 1, and shipped for sorting.
(§2) A portion of each of the deer and the elk were stained by the red food dye No. 40 treatment 40% with 16 μL Hoechst 33342 and the yellow food dye No. 6 treatment with 14 μL Hoechst 33342 as described in Example 1.
(§3) Samples were each bulk sorted with the same machine and parameters described in Example 1. Both sorted X and sorted Y sperm were collected into a single catch. The sorted samples were then frozen like those described in Example 1.
(§4) Frozen thawed samples were then tested for post thaw motilities and post thaw DNA fragmentation. Post thaw motilities were slightly higher in Elk sorted with a yellow quencher, while a more significant difference existed in progressive motility. In Table 10, post thaw DNA fragmentation in Elk can be seen at about double after 48 hours when red food dye No. 40 is compared to yellow food dye No. 6 as a dead quencher.

sperm [4] = assay: Post thaw DNA fragmentation Elk (Example 3); format: cell-based
Experimental: as §1, §2, §3, §4

[5] = test system: membrane compromised sperm; assay: Bivariate plots comparing dead quenching dyes (FIG. 3); format: cell-based; settings: three bulls, equal amounts of Hoechst 33342 and of dye
Text: FIG. 3 illustrates comparisons of bivariate plots generated in sex sorting sperm which reflect the intensity of the excited DNA selective fluorescent dye during sorting. Three bulls were stained with equal amounts of Hoechst 33342 and with an equal amount of yellow food dye No. 6 and red food dye No. 40. The region labeled as R4 surrounds what is considered the “dead” sperm population, while the region R1 is centered on viable, oriented sperm. It can be seen that for each bull yellow food dye no.

Structure (SMILES): O=S1(=O)OC(c2ccc(O)cc2)(c2ccc(O)cc2)c2ccccc21 [Phenol Red, phenolsulfonphthalein]
Intensity ([1]; dye 125 μM, pH 7.40): 85%
Intensity ([1]; dye 250 μM, pH 7.40): 76%
Intensity ([1]; dye 500 μM, pH 7.40): 66%
Intensity ([1]; dye 750 μM, pH 7.40): 56%
Intensity ([1]; dye 875 μM, pH 7.40): 47%
Intensity ([1]; dye 1250 μM, second buffer pH 7.40): 43%

post thaw DNA fragmentation compared to yellow food dye No. 6 (sperm [4]): about double
DNA fragmentation Post Sort (sperm [4]; elk, 0 h): 0%
DNA fragmentation Pre-sort (sperm [4]; elk, 0 h): 2.3%
DNA fragmentation Post Sort (sperm [4]; elk, 24 h): 0.3%
DNA fragmentation Pre-sort (sperm [4]; elk, 24 h): 5.6%
DNA fragmentation Post Sort (sperm [4]; elk, 48 h): 0.7%
DNA fragmentation Pre-sort (sperm [4]; elk, 48 h): 6%
Structure (SMILES): COc1cc(S(=O)(=O)O)c(C)cc1N=Nc1c(O)ccc2cc(S(=O)(=O)O)ccc12 [Red 40, 6-hydroxy-5-[(2-methoxy-5-methyl-4-sulfophenyl)azo]-2-naphthalenesulfonic acid, reference compound]
Motility Average 3 Hour (sperm [2]): 47.0%
Motile (sperm [3]): 51.0
Progressive (sperm [3]): 29.0

DNA fragmentation Post Sort (sperm [4]; post thaw 0 HR): 0%
DNA fragmentation Pre-sort (sperm [4]; post thaw 0 HR): 2.3%
DNA fragmentation Post Sort (sperm [4]; post thaw 24 HR): 0%
DNA fragmentation Pre-sort (sperm [4]; post thaw 24 HR): 3.3%
DNA fragmentation Post Sort (sperm [4]; post thaw 48 HR): 0.3%
DNA fragmentation Pre-sort (sperm [4]; post thaw 48 HR): 3.7%
Structure (SMILES): O=S(=O)([O-])c1ccc(N=Nc2c(O)ccc3cc(S(=O)(=O)[O-])ccc23)cc1.[Na+].[Na+] [Yellow 6, Disodium 6-hydroxy-5[(4-sulfophenyl)azo]-2-naphthalenesulfononate]
quenching of the dead population compared to red food dye No. 40 [5]: superior quenching
Motility Average 0 Hour (sperm [2]; post thaw 0 hour, Red = red food dye No. 40 treatment 40% (16-17 μl Hoechst 33342/2 ml), Yellow = yellow food dye No. 6 (14-15 μl)): 57.7%
Motility Average 3 Hour (sperm [2]): 49.0%
Motile (sperm [3]): 55.5
Progressive (sperm [3]): 38.0
